What is called IC50 is the concentration that gives 50% inhibition.

Molecules are shown by their SMILES.

We go through four compounds from ChEMBL document CHEMBL3638976, “Azetidine derivatives” (2014).

Sequence of Procathepsin L (P07711 whole entry): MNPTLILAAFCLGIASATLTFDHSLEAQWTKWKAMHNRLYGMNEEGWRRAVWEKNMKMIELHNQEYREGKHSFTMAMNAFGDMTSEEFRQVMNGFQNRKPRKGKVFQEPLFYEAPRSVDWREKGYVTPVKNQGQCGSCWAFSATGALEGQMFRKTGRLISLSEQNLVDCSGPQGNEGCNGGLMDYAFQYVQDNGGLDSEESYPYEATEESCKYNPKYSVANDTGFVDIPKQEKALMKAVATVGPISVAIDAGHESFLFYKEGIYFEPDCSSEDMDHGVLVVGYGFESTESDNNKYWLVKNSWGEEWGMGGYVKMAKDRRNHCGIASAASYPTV

One assay has as its target Procathepsin L (Homo sapiens, UniProt P07711). Nature of the assay: (§1) Enzyme Inhibition Assay: Enzyme activity is measured by observing the increase in fluorescence intensity caused by cleavage of a peptide substrate containing a fluorophore whose emission is quenched in the intact peptide.Assay buffer: 100 mM potassium phosphate pH 6.5, EDTA-Na 5 mM, Triton X-100 0.001%, DTT 5 mM.Enzymes (all at 1 nM): human and mouse Cathepsin S, Cat K, Cat B, Cat L.Substrate (20 μM): Z-Val-Val-Arg-AMC, except for Cat K which uses Z-Leu-Arg-AMC (both from Bachem).Z=Benzyloxycarbonyl.AMC=7-Amino-4-Methyl-Coumarin.DTT=dithiothreitol.Final volume: 100 μL.Excitation 360 nm, Emission 465 nm.Enzyme is added to the substance dilutions in 96-well microtitre plates and the reaction is started with substrate. Fluorescence emission is measured over 20 minutes, during which time a linear increase is observed in the absence of inhibitor.
Regarding `Cc1cc(-c2ccc(S(=O)(=O)[C@@H]3C[C@@H](C(=O)NC4(C#N)CC4)N(C(=O)C4(c5ncc(Cl)cc5F)CCN4C(=O)OC(C)(C)C)C3)c(Cl)c2)ccn1` (stereo partly drawn), half-maximal inhibition (IC50) was put at 523 nM.
The same measure, in the same setting: as for `C[C@H](Oc1ccc(S(=O)(=O)[C@@H]2C[C@@H](C(=O)NC3(C#N)CC3)N(C(=O)C3(c4ncc(Br)cc4F)CN(C)C3)C2)c(Cl)c1)C(F)(F)F`, the figure is 16.6 nM; as for `Cn1cc(-c2ccc(S(=O)(=O)[C@@H]3C[C@@H](C(=O)NC4(C#N)CC4)N(C(=O)C4(c5ncc(Br)cc5F)CCN4C(=O)OC(C)(C)C)C3)c(Cl)c2)cn1` (stereo partly drawn), 1160 nM; as for `C[C@H](Oc1ccc(S(=O)(=O)[C@@H]2C[C@@H](C(=O)NC3(C#N)CC3)N(C(=O)C3(c4ncc(Br)cc4F)CCN3C(=O)OC(C)(C)C)C2)c(Cl)c1)C(F)(F)F` (stereo partly drawn), 188 nM.

In the next assay the target is Cathepsin S (Homo sapiens, UniProt P25774). Described as §1.
Sequence of Cathepsin S (P25774 whole entry): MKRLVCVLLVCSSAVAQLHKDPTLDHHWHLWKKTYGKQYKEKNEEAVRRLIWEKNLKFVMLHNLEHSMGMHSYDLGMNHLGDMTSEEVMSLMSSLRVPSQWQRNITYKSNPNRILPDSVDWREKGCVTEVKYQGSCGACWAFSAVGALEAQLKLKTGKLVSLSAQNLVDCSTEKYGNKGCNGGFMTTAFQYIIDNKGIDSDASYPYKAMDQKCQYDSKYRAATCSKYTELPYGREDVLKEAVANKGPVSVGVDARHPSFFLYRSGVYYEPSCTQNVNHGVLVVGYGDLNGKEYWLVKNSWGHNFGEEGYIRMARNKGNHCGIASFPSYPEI
For `Cc1cc(-c2ccc(S(=O)(=O)[C@@H]3C[C@@H](C(=O)NC4(C#N)CC4)N(C(=O)C4(c5ncc(Cl)cc5F)CCN4C(=O)OC(C)(C)C)C3)c(Cl)c2)ccn1` (stereo partly drawn), inhibition was half-maximal at 1.55 nM (IC50).
Same read-out and setting: with `C[C@H](Oc1ccc(S(=O)(=O)[C@@H]2C[C@@H](C(=O)NC3(C#N)CC3)N(C(=O)C3(c4ncc(Br)cc4F)CN(C)C3)C2)c(Cl)c1)C(F)(F)F` the figure was 2.13 nM.
Compound `Cn1cc(-c2ccc(S(=O)(=O)[C@@H]3C[C@@H](C(=O)NC4(C#N)CC4)N(C(=O)C4(c5ncc(Br)cc5F)CCN4C(=O)OC(C)(C)C)C3)c(Cl)c2)cn1` (stereo partly drawn) showed an IC50 of 1.12 nM.
Still for that read-out and setting: with `C[C@H](Oc1ccc(S(=O)(=O)[C@@H]2C[C@@H](C(=O)NC3(C#N)CC3)N(C(=O)C3(c4ncc(Br)cc4F)CCN3C(=O)OC(C)(C)C)C2)c(Cl)c1)C(F)(F)F` (stereo partly drawn) the figure was 5.5 nM.
